Results: article PMC13020021 (International Journal for Parasitology: Drugs and Drug …, 2026)
“Also recorded” adds a separate entry of the source.

Assays:
Fasciola spp. TRPMPZQ = Fasciola spp. TRPMPZQ ref Park et al., 2021; cited from earlier work
[1] = test system: TRPMPZQ of pseudophyllidean cestodes; settings: binding pocket variation of pseudophyllidean cestodes ref Sprague et al., 2025; cited from earlier work
natural TRPMPZQ variants = test: Ca2+ reporter assay, entire natural variation collection; assay type: cell-based, Schistosoma mansoni; settings: mean ± sd

O=C(C1CCCCC1)N1CC(=O)N2CCc3ccccc3C2C1 (racemic) [(±)-PZQ, praziquantel]
sensitivity of TRPMPZQ to PZQ (Fasciola spp. TRPMPZQ): insensitivity; also recorded: refractory | sensitivity to PZQ [1]: micromolar range | average RA of the entire natural variation collection (natural TRPMPZQ variants): 1.2 ± 0.55
